Reference: patent US20260297121A1, “MITHRAMYCIN (MTM) 2’ OXIMES” (University of Kentucky Research Foundation, priority 2023, published 2026)
pIC50: −log10 of the molar value. Where two headings read alike, the source gives them in different places.

Columns and labels:
log P = assay type: physicochemical; details: Table 2
TC32 cells = test: Potency IC50 in TC32 cells and selectivity; assay type: cell-based; details: Homo sapiens, TC-32, Table 2, read-out: IC50 TC32
PC3 [1] = test: IC50 in PC3 cells; assay type: cell-based; details: Homo sapiens, PC-3, read-out: IC50 PC2, Table 2; head prints PC2, text PC3
TC32 = test: Cytotoxicity, resazurin fluorescence, TC32; assay type: cell-based
Protocol: (§1) Exemplary compounds of the presently-disclosed subject matter were assessed for cytotoxicity (Table 5) in Ewing sarcoma (TC32) and non-Ewing (PC3 prostate cancer). […] Cells (1000-5000/well) were seeded in 96-well plates and allowed to attach and grow for 24 hr prior to adding compounds in half-log increments from 0.3 nM-10 μM. Cell viability was assessed after 72 hr continuous incubation with compounds using resazurin fluorescence. GI50 values were estimated using GraphPad Prism.

PC3 [2] = test: Cytotoxicity, resazurin fluorescence, PC3; assay type: cell-based
Protocol: as §1

TC71 = test: Cytotoxicity, resazurin fluorescence, TC71; assay type: cell-based; details: Table 6, 72 hr, EWS cells
5838 = test: Cytotoxicity, resazurin fluorescence, 5838; assay type: cell-based; details: Table 6; 72 hr; express EWS-ERG
A673 = test: Cytotoxicity, resazurin fluorescence, A673; assay type: cell-based; details: Table 6, 72 hr, EWS cells
RDES = test: Cytotoxicity, resazurin fluorescence, RDES; assay type: cell-based; details: Table 6, 72 hr, EWS cells
SK.ES1 = test: Cytotoxicity, resazurin fluorescence, SK.ES1; assay type: cell-based; details: Table 6, 72 hr, EWS cells
ES3 = test: Cytotoxicity, resazurin fluorescence, ES3; assay type: cell-based; details: Table 6; 72 hr; EWS cells
ES4 = test: Cytotoxicity, resazurin fluorescence, ES4; assay type: cell-based; details: Table 6; 72 hr; EWS cells
ES7 = test: Cytotoxicity, resazurin fluorescence, ES7; assay type: cell-based; details: Table 6, 72 hr, EWS cells
ES8 = test: Cytotoxicity, resazurin fluorescence, ES8; assay type: cell-based; details: Table 6, 72 hr, EWS cells
EWS cells = test: Cytotoxicity, average over Ewing (EWS) cell panel; assay type: cell-based; details: Table 6; 72 hr; average of EWS cells
Protocol: as §1

BL1395 = test: Cytotoxicity, resazurin fluorescence, BL1395; assay type: cell-based; details: read-out: GI50 BL1395
A549 = test: Cytotoxicity, resazurin fluorescence, A549; assay type: cell-based; details: read-out: GI50 A549
H460 = test: Cytotoxicity, resazurin fluorescence, H460; assay type: cell-based; details: read-out: GI50 H460
Hela = test: Cytotoxicity, resazurin fluorescence, Hela; assay type: cell-based; details: read-out: GI50 Hela
HepG2 = test: Cytotoxicity, resazurin fluorescence, HepG2; assay type: cell-based; details: read-out: GI50 HepG2
LNCap = test: Cytotoxicity, resazurin fluorescence, LNCap; assay type: cell-based; details: read-out: GI50 LNCap
PANC1 = test: Cytotoxicity, resazurin fluorescence, PANC1; assay type: cell-based; details: read-out: GI50 PANC1
Non EWS cells = test: Cytotoxicity, average over non-Ewing cell panel; assay type: cell-based; details: read-out: GI50 Average, Non EWS cells
Protocol: as §1

HS68 = test: Cytotoxicity, 72 hr resazurin assay, HS68 fibroblast; assay type: cell-based; details: for GI50: Homo sapiens, Hs68, fibroblast, non-tumor control; for AUC HS68: area under concentration-efficacy curve, possible range 0-20000
Text: (§2) A fibroblast cell line (HS68 (FIG. 2E)) was used as a non-tumor control. The area under the concentration-efficacy curve (AUC; possible range of 0-20000) was used to estimate an alternate metric to GI50 for cases of shallow efficacy (e.g., the limited effect in HS68 cells).

JR1 = test: Cytotoxicity, 72 hr resazurin assay, JR1 embryonal rhabdomyosarcoma; assay type: cell-based; details: for AUC JR1: area under concentration-efficacy curve, possible range 0-20000; for GI50: embryonal
Text: as §2

RD = test: Cytotoxicity, 72 hr resazurin assay, RD embryonal rhabdomyosarcoma; assay type: cell-based; details: for GI50: Homo sapiens, RD, embryonal; for AUC RD: area under concentration-efficacy curve, possible range 0-20000
Text: as §2

RH30 = test: Cytotoxicity, 72 hr resazurin assay, RH30 alveolar rhabdomyosarcoma; assay type: cell-based; details: for GI50: Rh30, alveolar; for AUC RH30: area under concentration-efficacy curve, possible range 0-20000
Text: as §2

RH41 = test: Cytotoxicity, 72 hr resazurin assay, RH41 alveolar rhabdomyosarcoma; assay type: cell-based; details: for GI50: Homo sapiens, Rh41, alveolar; for AUC RH41: area under concentration-efficacy curve, possible range 0-20000
Text: as §2

rhabdomyosarcoma cells = test: Cytotoxicity, 72 hr resazurin assay, four rhabdomyosarcoma cell lines; assay type: cell-based; details: JR1, RD, RH30, RH41, read-out: GI50 range in the four cell lines tested
Text: as §2

DU145 = test: Cytotoxicity, resazurin fluorescence, DU145; assay type: cell-based; details: read-out: GI50 DU145
EWS-FLI1 = details: screen of more than 50,000 natural products and synthetic compounds; cited from earlier work
[3] = cited from earlier work
[4] = Homo sapiens, TC-32, 72 h, read-out: GI50 TC32, Table 5
[5] = Table 6, 72 hr, lymphocyte origin
[6] = Table 6, 72 hr, average of non EWS cells

With `COC(C(=NOCc1cc2ccccc2[nH]1)C(O)C(C)O)C1Cc2cc3cc(OC4CC(OC5CC(O)C(O)C(C)O5)C(O)C(C)O4)c(C)c(O)c3c(O)c2C(=O)C1OC1CC(OC2CC(OC3CC(C)(O)C(O)C(C)O3)C(O)C(C)O2)C(O)C(C)O1` (stereo not shown) [YL-C09] the logP (log P) was 1.9, the pIC50 (TC32 cells) was 8.71 and the pIC50 (PC3 [1]) was 8.25. The GI50 (TC32; [4]) was 17 nM, the GI50 (PC3 [2]; Homo sapiens, PC-3, 72 h, Table 6, non EWS cells, read-out: GI50 PC3) was 19.3 nM and the GI50 (TC71; Homo sapiens, TC-71) was 11.5 nM. It also gave a GI50 5838 of 27.5 nM, a GI50 (A673; Homo sapiens, A673) of 38.1 nM and a GI50 (RDES; RD-ES) of 16.8 nM. For the same compound, the GI50 (SK.ES1; Homo sapiens, SK-ES1) was 18 nM, the GI50 (ES3) was 19.2 nM and the GI50 (ES4) was 16.6 nM. It also gave a GI50 (ES7; Homo sapiens, ES7) of 14.5 nM, a GI50 (ES8; Homo sapiens, ES8) of 31.5 nM and a GI50 (EWS cells) of 21.1 nM. It also gave a GI50 (BL1395; [5]) of 24.1 nM, a GI50 (A549; Homo sapiens, A549, Table 6, 72 hr, non EWS cells) of 22.6 nM and a GI50 (H460; Homo sapiens, NCI-H460, Table 6, 72 hr, non EWS cells) of 21.5 nM. It also gave a GI50 (Hela; Homo sapiens, HeLa, Table 6, 72 hr, non EWS cells) of 27.1 nM, a GI50 (HepG2; Homo sapiens, HepG2, Table 6, 72 hr, hepatic origin) of 80.1 nM and a GI50 (LNCap; Homo sapiens, LNCaP, Table 6, 72 hr, non EWS cells) of 63.3 nM. It also gave a GI50 (PANC1; Homo sapiens, PANC-1, Table 6, 72 hr, non EWS cells) of 33.4 nM, a GI50 (Non EWS cells; [6]) of 34.5 nM and a GI50 (HS68) of 1240 nM. For the same compound, the “AUC HS68” value (HS68) was 15517, the “AUC JR1” value (JR1) was 8554 and the GI50 (JR1) was 15 nM. For the same compound, the GI50 (RD) was 20.7 nM, the “AUC RD” value (RD) was 8443 and the GI50 (RH30) was 24.3 nM. For the same compound, the “AUC RH30” value (RH30) was 7400, the GI50 (RH41) was 24.1 nM and the “AUC RH41” value (RH41) was 9239. It also gave a GI50 (rhabdomyosarcoma cells) of 15 to 25 nM.
`COC(C(=NOCCNC(=O)c1[nH]c2ccc(Cl)cc2c1-c1c(C)noc1C)C(O)C(C)O)C1Cc2cc3cc(OC4CC(OC5CC(O)C(O)C(C)O5)C(O)C(C)O4)c(C)c(O)c3c(O)c2C(=O)C1OC1CC(OC2CC(OC3CC(C)(O)C(O)C(C)O3)C(O)C(C)O2)C(O)C(C)O1` (stereo not shown) [YL-C110] showed a logP (log P) of 2.56, a pIC50 (TC32 cells) of 8.66 and a pIC50 (PC3 [1]) of 8.15. It also gave a GI50 (TC32; [4]) of 14 nM, a GI50 (TC32; Homo sapiens, TC-32, 72 h, read-out: GI50 TC32, Table 6, EWS cells) of 14.3 nM and a GI50 (PC3 [2]; Homo sapiens, PC-3, 72 h, read-out: GI50 PC3, Table 5) of 27 nM. For the same compound, the GI50 (PC3 [2]; Homo sapiens, PC-3, 72 h, read-out: GI50 PC3, Table 6, non EWS cells) was 26.8 nM, the GI50 (TC71; Homo sapiens, TC-71) was 10.7 nM and the GI50 5838 was 26.6 nM. For the same compound, the GI50 (A673; Homo sapiens, A673) was 33.5 nM, the GI50 (RDES; RD-ES) was 13.3 nM and the GI50 (SK.ES1; Homo sapiens, SK-ES1) was 18.8 nM. It also gave a GI50 (ES3) of 18.8 nM, a GI50 (ES4) of 10.1 nM and a GI50 (ES7; Homo sapiens, ES7) of 13.6 nM. For the same compound, the GI50 (ES8; Homo sapiens, ES8) was 16.6 nM, the GI50 (EWS cells) was 17.6 nM and the GI50 (BL1395; Lymphocyte, 72 h) was 49.4 nM. The GI50 (A549; Homo sapiens, A549, 72 h) was 46.7 nM, the GI50 (DU145; Homo sapiens, DU-145, 72 h) was 16.2 nM and the GI50 (H460; Homo sapiens, NCI-H460, 72 h) was 33.2 nM. The GI50 (Hela; Homo sapiens, HeLa, 72 h) was 102 nM, the GI50 (HepG2; Homo sapiens, HepG2, 72 h) was 466 nM and the GI50 (LNCap; Homo sapiens, LNCaP, 72 h) was 44.3 nM. It also gave a GI50 (PANC1; Homo sapiens, PANC-1, 72 h) of 87.5 nM, a GI50 (Non EWS cells; 72 h) of 96.9 nM and a GI50 (HS68) of 33.6 nM. The “AUC HS68” value (HS68) was 16245, the “AUC JR1” value (JR1) was 8535 and the GI50 (JR1) was 14.9 nM. For the same compound, the GI50 (RD) was 22.4 nM, the “AUC RD” value (RD) was 8367 and the GI50 (RH30) was 21 nM. For the same compound, the “AUC RH30” value (RH30) was 7413, the GI50 (RH41) was 24.7 nM and the “AUC RH41” value (RH41) was 9477. For the same compound, the GI50 (rhabdomyosarcoma cells) was 15 to 25 nM.
mithramycin A [MTM, reference compound] showed a GI50 (TC32; Table 5, 72 hr, read-out: GI50 TC32) of 10 nM, a GI50 (TC32; Table 6, 72 hr, EWS cells, read-out: GI50 TC32) of 10.4 nM and a GI50 (PC3 [2]; Table 5, 72 hr, read-out: GI50 PC3) of 11 nM. It also gave a GI50 (PC3 [2]; Table 6, 72 hr, non EWS cells, read-out: GI50 PC3) of 11.3 nM, a GI50 (TC71) of 10.3 nM and a GI50 5838 of 11.2 nM. For the same compound, the GI50 (A673) was 9.1 nM, the GI50 (RDES) was 10.6 nM and the GI50 (SK.ES1) was 10.2 nM. The GI50 (ES3) was 12.8 nM, the GI50 (ES4) was 7.3 nM and the GI50 (ES7) was 10 nM. The GI50 (ES8) was 17.4 nM, the GI50 (EWS cells) was 10.9 nM and the GI50 (BL1395; [5]) was 9.9 nM. The GI50 (A549; Table 6, 72 hr, non EWS cells) was 54 nM, the GI50 (DU145; Table 6, 72 hr, non EWS cells) was 16.4 nM and the GI50 (H460; Table 6, 72 hr, non EWS cells) was 6.8 nM. It also gave a GI50 (Hela; Table 6, 72 hr, non EWS cells) of 28.4 nM, a GI50 (HepG2; Table 6, 72 hr, hepatic origin) of 28.4 nM and a GI50 (LNCap; Table 6, 72 hr, non EWS cells) of 82.7 nM. For the same compound, the GI50 (PANC1; Table 6, 72 hr, non EWS cells) was 22.3 nM, the GI50 (Non EWS cells; [6]) was 28.9 nM and the “inhibition of EWS-FLI1” value (EWS-FLI1) was “top inhibitor”. For the same compound, the clinical trial outcome ([3]; NCI clinical study, Ewing sarcoma patients) was “terminated early, due to toxicities” and the therapeutic index ([3]; clinical evaluation, 1960s and 70s) was “narrow therapeutic index”.
